# Experimental data taken from paper PMC5218480 (PLoS ONE, 2017).
# System: MV-4-11 cells
# Experiment: Gene expression microarray analysis (Affymetrix PrimeView) and GSEA
# Format: cell-based, human
# Set-up: RFU PODN (11730768_x_at) / Fold change /veh PODN (11730768_x_at) / RFU LINC00158 (11744669_a_at) / Fold change /veh LINC00158 (11744669_a_at) / RFU DUSP10 (11751237_a_at) / Fold change /veh DUSP10 (11751237_a_at) / RFU ID3 (11757404_x_at) / Fold change /veh ID3 (11757404_x_at) / RFU PLEKHG5 (11737974_s_at) / Fold change /veh PLEKHG5 (11737974_s_at) / RFU LRRC4B (11730491_at) / Fold change /veh LRRC4B (11730491_at) / RFU GIMAP4 (11747438_a_at) / Fold change /veh GIMAP4 (11747438_a_at) / RFU KRT8 (11758183_x_at) / Fold change /veh KRT8 (11758183_x_at) / RFU CNN1 (11734310_a_at) / Fold change /veh CNN1 (11734310_a_at) / RFU VPS37D (11726825_at) / Fold change /veh VPS37D (11726825_at) / RFU C10orf10 (11716522_x_at) / Fold change /veh C10orf10 (11716522_x_at) / RFU KIR2DL2 /// KIR2DL4 /// KIR2DL5A /// KIR2DL5B /// KIR2DS1 /// KIR2DS2 /// KIR2DS3 /// KIR2DS4 /// KIR3DL3 /// KIR3DL3 /// KIR3DS1 (11738374_at) / Fold change /veh KIR2DL2 /// KIR2DL4 /// KIR2DL5A /// KIR2DL5B /// KIR2DS1 /// KIR2DS2 /// KIR2DS3 /// KIR2DS4 /// KIR3DL3 /// KIR3DL3 /// KIR3DS1 (11738374_at) / RFU C1QL1 (11718748_at) / Fold change /veh C1QL1 (11718748_at) / RFU TMPRSS4 (11747572_a_at) / Fold change /veh TMPRSS4 (11747572_a_at) / RFU HAMP (11756126_x_at) / Fold change /veh HAMP (11756126_x_at) / RFU RNFT2 (11725882_a_at) / Fold change /veh RNFT2 (11725882_a_at) / RFU NR4A2 (11747474_a_at) / Fold change /veh NR4A2 (11747474_a_at) / RFU ABCC12 (11746883_a_at) / Fold change /veh ABCC12 (11746883_a_at) / RFU TMEM136 (11760407_x_at) / Fold change /veh TMEM136 (11760407_x_at) / RFU CLDN22 /// WWC2 (11732394_at) / Fold change /veh CLDN22 /// WWC2 (11732394_at) / RFU HLA-DPB1 (11760878_x_at) / Fold change /veh HLA-DPB1 (11760878_x_at) / RFU SPINT1 (11716480_a_at) / Fold change /veh SPINT1 (11716480_a_at) / RFU GAP43 (11754022_s_at) / Fold change /veh GAP43 (11754022_s_at) / RFU A4GNT (11735810_at) / Fold change /veh A4GNT (11735810_at) / RFU PRB3 (11715151_x_at) / Fold change /veh PRB3 (11715151_x_at) / RFU TUBB4B (11761932_at) / Fold change /veh TUBB4B (11761932_at) / RFU CAPN14 (11732068_a_at) / Fold change /veh CAPN14 (11732068_a_at) / RFU TMCC2 (11721928_a_at) / Fold change /veh TMCC2 (11721928_a_at) / RFU IRGQ (11745062_a_at) / Fold change /veh IRGQ (11745062_a_at) / RFU FAM174B (11720279_a_at) / Fold change /veh FAM174B (11720279_a_at) / RFU TMPRSS4 (11748680_a_at) / Fold change /veh TMPRSS4 (11748680_a_at) / RFU FAM212B (11763350_a_at) / Fold change /veh FAM212B (11763350_a_at) / RFU PLEKHG5 (11743358_a_at) / Fold change /veh PLEKHG5 (11743358_a_at) / RFU ZSCAN30 (11745921_a_at) / Fold change /veh ZSCAN30 (11745921_a_at) / RFU CMKLR1 (11741424_a_at) / Fold change /veh CMKLR1 (11741424_a_at) / RFU LOC101060620 /// MAPK8IP1 (11723275_at) / Fold change /veh LOC101060620 /// MAPK8IP1 (11723275_at) / RFU SPTSSB (11747773_x_at) / Fold change /veh SPTSSB (11747773_x_at) / RFU PRSS12 (11739890_at) / Fold change /veh PRSS12 (11739890_at) / RFU BIN1 (11741810_x_at) / Fold change /veh BIN1 (11741810_x_at) / RFU WNT11 (11732464_a_at) / Fold change /veh WNT11 (11732464_a_at) / RFU C10orf10 (11716521_a_at) / Fold change /veh C10orf10 (11716521_a_at) / RFU C5orf56 (11738089_at) / Fold change /veh C5orf56 (11738089_at) / RFU CYB561 (11721691_x_at) / Fold change /veh CYB561 (11721691_x_at) / RFU ANKRD19P (11752326_a_at) / Fold change /veh ANKRD19P (11752326_a_at) / RFU OR2T12 /// OR2T33 /// OR2T8 (11738714_s_at) / Fold change /veh OR2T12 /// OR2T33 /// OR2T8 (11738714_s_at) / RFU VCAN (11748164_a_at) / Fold change /veh VCAN (11748164_a_at) / RFU JSRP1 (11732532_at) / Fold change /veh JSRP1 (11732532_at) / RFU KRTAP10-11 (11738290_x_at) / Fold change /veh KRTAP10-11 (11738290_x_at) / RFU MYO3A (11730013_a_at) / Fold change /veh MYO3A (11730013_a_at) / RFU EBF3 (11725865_a_at) / Fold change /veh EBF3 (11725865_a_at) / RFU CAMK2N1 (11719241_x_at) / Fold change /veh CAMK2N1 (11719241_x_at) / RFU C5orf56 (11738088_a_at) / Fold change /veh C5orf56 (11738088_a_at) / RFU OLFML3 (11715873_a_at) / Fold change /veh OLFML3 (11715873_a_at) / RFU LOC100653217 /// NTM (11731650_a_at) / Fold change /veh LOC100653217 /// NTM (11731650_a_at) / RFU MAPK11 (11762145_a_at) / Fold change /veh MAPK11 (11762145_a_at) / RFU FIZ1 (11724087_x_at) / Fold change /veh FIZ1 (11724087_x_at) / RFU OASL (11726364_x_at) / Fold change /veh OASL (11726364_x_at) / RFU SOX15 (11748057_x_at) / Fold change /veh SOX15 (11748057_x_at) / RFU CD79A (11719716_a_at) / Fold change /veh CD79A (11719716_a_at) / RFU HIST1H1D (11736915_at) / Fold change /veh HIST1H1D (11736915_at) / RFU CASKIN2 (11723855_a_at) / Fold change /veh CASKIN2 (11723855_a_at) / RFU LOC730098 (11760151_x_at) / Fold change /veh LOC730098 (11760151_x_at) / RFU OR4N2 (11742367_at) / Fold change /veh OR4N2 (11742367_at) / RFU PRRT2 (11749266_a_at) / Fold change /veh PRRT2 (11749266_a_at) / RFU SNX32 (11753110_a_at) / Fold change /veh SNX32 (11753110_a_at) / RFU CDHR5 (11726645_a_at) / Fold change /veh CDHR5 (11726645_a_at) / RFU RCAN1 (11760418_a_at) / Fold change /veh RCAN1 (11760418_a_at) / RFU FAM167A (11723789_a_at) / Fold change /veh FAM167A (11723789_a_at) / RFU FAM26E (11764081_at) / Fold change /veh FAM26E (11764081_at) / RFU ISYNA1 (11749810_s_at) / Fold change /veh ISYNA1 (11749810_s_at) / RFU ACY1 (11761880_at) / Fold change /veh ACY1 (11761880_at) / RFU 11764098_at / Fold change /veh 11764098_at / RFU SAMD14 (11745864_x_at) / Fold change /veh SAMD14 (11745864_x_at) / RFU NPB (11741838_a_at) / Fold change /veh NPB (11741838_a_at) / RFU TMPRSS6 (11731388_a_at) / Fold change /veh TMPRSS6 (11731388_a_at) / RFU KRTAP10-2 (11738614_at) / Fold change /veh KRTAP10-2 (11738614_at) / RFU ARHGAP8 /// PRR5-ARHGAP8 (11727945_x_at) / Fold change /veh ARHGAP8 /// PRR5-ARHGAP8 (11727945_x_at) / RFU KRTAP5-7 /// NADSYN1 (11734609_at) / Fold change /veh KRTAP5-7 /// NADSYN1 (11734609_at) / RFU RASL12 (11751679_a_at) / Fold change /veh RASL12 (11751679_a_at) / RFU CDKN2B (11736163_a_at) / Fold change /veh CDKN2B (11736163_a_at) / RFU PRF1 (11729649_at) / Fold change /veh PRF1 (11729649_at) / RFU, ZNF638 /// ZNF638-IT1 / Fold change vs veh, ZNF638 /// ZNF638-IT1 / RFU, PANK3 / Fold change vs veh, PANK3 / RFU, SH3YL1 / Fold change vs veh, SH3YL1 / RFU, ZEB2 / Fold change vs veh, ZEB2 / RFU, NRIP1 / Fold change vs veh, NRIP1 / RFU, PTTG1IP / Fold change vs veh, PTTG1IP / RFU, CAPN2 / Fold change vs veh, CAPN2 / RFU, MED14 / Fold change vs veh, MED14 / RFU, SNORA58 / Fold change vs veh, SNORA58 / RFU, C1orf63 / Fold change vs veh, C1orf63 / RFU, LRRFIP1 / Fold change vs veh, LRRFIP1 / RFU, NDUFAF7 / Fold change vs veh, NDUFAF7 / RFU, SLC12A2 / Fold change vs veh, SLC12A2 / RFU, IBTK / Fold change vs veh, IBTK / RFU, ESF1 / Fold change vs veh, ESF1 / Fold change vs veh, TMEM50B / RFU, TAOK1 / Fold change vs veh, TAOK1 / RFU, ACBD3 / Fold change vs veh, ACBD3 / RFU, TMA16 / Fold change vs veh, TMA16 / RFU, RWDD3 / Fold change vs veh, RWDD3 / RFU, BCAT1 / Fold change vs veh, BCAT1 / RFU, EDEM3 / Fold change vs veh, EDEM3 / RFU, TMEM33 / Fold change vs veh, TMEM33 / RFU, WDR75 / Fold change vs veh, WDR75 / RFU, AHCTF1 / Fold change vs veh, AHCTF1 / RFU, TFRC / Fold change vs veh, TFRC / RFU, ZDHHC17 / Fold change vs veh, ZDHHC17 / RFU, NOM1 / Fold change vs veh, NOM1 / RFU, ARL8B / Fold change vs veh, ARL8B / RFU, ZBTB11 / Fold change vs veh, ZBTB11 / RFU, TAMM41 / Fold change vs veh, TAMM41 / RFU, KIAA1704 /// LOC100996395 / Fold change vs veh, KIAA1704 /// LOC100996395 / RFU, ING1 / Fold change vs veh, ING1 / RFU, TRMT61B / Fold change vs veh, TRMT61B / RFU, FUBP3 / Fold change vs veh, FUBP3 / RFU, TP53 / Fold change vs veh, TP53 / RFU, TNKS2 / Fold change vs veh, TNKS2 / RFU, ZFP14 / Fold change vs veh, ZFP14 / RFU, ACTR2 / Fold change vs veh, ACTR2 / RFU, PPP3R1 / Fold change vs veh, PPP3R1 / RFU, PIK3R1 / Fold change vs veh, PIK3R1 / RFU, HNRNPA1 / Fold change vs veh, HNRNPA1 / RFU, RNF170 / Fold change vs veh, RNF170 / RFU, ZNF28 / Fold change vs veh, ZNF28 / RFU, RNGTT / Fold change vs veh, RNGTT / RFU, OGT / Fold change vs veh, OGT / RFU, BRD1 / Fold change vs veh, BRD1 / RFU, MARS / Fold change vs veh, MARS / RFU, ZNF655 / Fold change vs veh, ZNF655 / RFU, FAHD1 / Fold change vs veh, FAHD1 / RFU, BDP1 / Fold change vs veh, BDP1 / RFU, LRRCC1 / Fold change vs veh, LRRCC1 / RFU, ARID1A / Fold change vs veh, ARID1A / RFU, ZNF146 / Fold change vs veh, ZNF146 / RFU, ZNF330 / Fold change vs veh, ZNF330 / RFU, GPN3 / Fold change vs veh, GPN3 / RFU, C9orf123 / Fold change vs veh, C9orf123 / RFU, N4BP2L2 / Fold change vs veh, N4BP2L2 / RFU, ARFIP1 / Fold change vs veh, ARFIP1 / RFU, FAM179B / Fold change vs veh, FAM179B / RFU, BCL10 / Fold change vs veh, BCL10 / RFU, UHRF1BP1L / Fold change vs veh, UHRF1BP1L / RFU, BET1 / Fold change vs veh, BET1 / RFU, CNOT2 / Fold change vs veh, CNOT2 / RFU, ZNF268 / Fold change vs veh, ZNF268 / Fold change vs veh, ZNF507 / RFU, DGCR2 / Fold change vs veh, DGCR2 / RFU, WDSUB1 / Fold change vs veh, WDSUB1 / Fold change vs veh, HSP90B1 /// MIR3652 / RFU, ADSS / Fold change vs veh, ADSS / RFU, GK / Fold change vs veh, GK / RFU, ZNF148 / Fold change vs veh, ZNF148 / RFU, TAF9 / Fold change vs veh, TAF9 / RFU, SLC1A5 / Fold change vs veh, SLC1A5 / RFU, SLMO2 / Fold change vs veh, SLMO2 / RFU, ABCC4 / Fold change vs veh, ABCC4 / RFU, LOC101060439 /// RAP1B / Fold change vs veh, LOC101060439 /// RAP1B / RFU, RFX7 / Fold change vs veh, RFX7 / RFU, GTPBP10 / Fold change vs veh, GTPBP10 / RFU, CNEP1R1 / Fold change vs veh, CNEP1R1 / RFU, BIVM-ERCC5 /// ERCC5 / Fold change vs veh, BIVM-ERCC5 /// ERCC5 / RFU, ILF3 / Fold change vs veh, ILF3 / RFU 11762660_at / Fold change /veh 11762660_at / RFU VCAN (11757783_s_at) / Fold change /veh VCAN (11757783_s_at) / RFU DDX43 (11728927_at) / Fold change /veh DDX43 (11728927_at) / RFU KRT8 (11758188_x_at) / Fold change /veh KRT8 (11758188_x_at) / RFU NKD1 (11759106_at) / Fold change /veh NKD1 (11759106_at) / RFU SRD5A1 (11742802_a_at) / Fold change /veh SRD5A1 (11742802_a_at) / RFU TPSAB1 /// TPSB2 (11721975_s_at) / Fold change /veh TPSAB1 /// TPSB2 (11721975_s_at) / RFU GSTM3 (11746129_a_at) / Fold change /veh GSTM3 (11746129_a_at) / RFU IL23R (11737362_x_at) / Fold change /veh IL23R (11737362_x_at) / RFU TMEM51 (11727254_a_at) / Fold change /veh TMEM51 (11727254_a_at) / RFU PIWIL2 (11732686_x_at) / Fold change /veh PIWIL2 (11732686_x_at) / RFU ORM1 (11744905_x_at) / Fold change /veh ORM1 (11744905_x_at) / RFU CCDC152 (11743942_at) / Fold change /veh CCDC152 (11743942_at) / RFU ECM1 (11717891_a_at) / Fold change /veh ECM1 (11717891_a_at) / RFU IL23R (11748794_a_at) / Fold change /veh IL23R (11748794_a_at) / RFU TNFAIP8L3 (11732012_x_at) / Fold change /veh TNFAIP8L3 (11732012_x_at) / RFU MBOAT4 (11741988_at) / Fold change /veh MBOAT4 (11741988_at) / RFU 11764193_at / Fold change /veh 11764193_at / RFU TMEM53 (11763286_at) / Fold change /veh TMEM53 (11763286_at) / RFU MAGEB2 (11727129_at) / Fold change /veh MAGEB2 (11727129_at) / RFU TMEM200A (11744735_a_at) / Fold change /veh TMEM200A (11744735_a_at) / RFU CCDC152 (11751479_a_at) / Fold change /veh CCDC152 (11751479_a_at) / RFU FAM211A (11726209_a_at) / Fold change /veh FAM211A (11726209_a_at) / RFU RGS16 (11746705_a_at) / Fold change /veh RGS16 (11746705_a_at) / RFU VCAN (11755009_s_at) / Fold change /veh VCAN (11755009_s_at) / RFU RHOB (11743442_s_at) / Fold change /veh RHOB (11743442_s_at) / RFU RGS16 (11720943_a_at) / Fold change /veh RGS16 (11720943_a_at) / RFU RGS16 (11720944_at) / Fold change /veh RGS16 (11720944_at) / RFU, VPS4B / Fold change vs veh, VPS4B / RFU, CREB1 / Fold change vs veh, CREB1 / RFU, DNAJC13 / Fold change vs veh, DNAJC13 / RFU, GNAQ / Fold change vs veh, GNAQ / RFU, CDK5R1 / Fold change vs veh, CDK5R1 / RFU, ZRANB3 / Fold change vs veh, ZRANB3 / RFU, CUL4A / Fold change vs veh, CUL4A / RFU, CCNY / Fold change vs veh, CCNY / RFU, UFL1 / Fold change vs veh, UFL1 / RFU, COG3 / Fold change vs veh, COG3 / RFU, DIAPH2 / Fold change vs veh, DIAPH2 / RFU, SKA2 / Fold change vs veh, SKA2 / RFU, AFF3 / Fold change vs veh, AFF3 / RFU, LMF1 / Fold change vs veh, LMF1 / RFU, IPO11 / Fold change vs veh, IPO11 / RFU, DFFB / Fold change vs veh, DFFB / RFU, FOXP1 / Fold change vs veh, FOXP1 / RFU, CARD8 / Fold change vs veh, CARD8 / RFU, STRN3 / Fold change vs veh, STRN3 / RFU, ADK / Fold change vs veh, ADK / RFU, RASSF2 / Fold change vs veh, RASSF2 / RFU, WIPF1 / Fold change vs veh, WIPF1 / RFU, LARP1B / Fold change vs veh, LARP1B / RFU, RASA1 / Fold change vs veh, RASA1 / RFU, RB1 / Fold change vs veh, RB1 / RFU, PPFIA1 / Fold change vs veh, PPFIA1 / RFU, MAT2A / Fold change vs veh, MAT2A / RFU, CCT5 / Fold change vs veh, CCT5 / RFU, WDR92 / Fold change vs veh, WDR92 / RFU, CUX1 / Fold change vs veh, CUX1 / RFU, TTC7A / Fold change vs veh, TTC7A / RFU, TMEM135 / Fold change vs veh, TMEM135 / RFU, DEPTOR / Fold change vs veh, DEPTOR / RFU, CPM / Fold change vs veh, CPM / RFU, DNAJB6 / Fold change vs veh, DNAJB6 / RFU, CACNA2D3 / Fold change vs veh, CACNA2D3 / RFU, DTX4 / Fold change vs veh, DTX4 / RFU, TFCP2 / Fold change vs veh, TFCP2 / RFU, GMCL1 /// GMCL1P1 / Fold change vs veh, GMCL1 /// GMCL1P1 / RFU, AEBP2 / Fold change vs veh, AEBP2 / RFU, SNHG1 /// SNORD22 /// SNORD25 /// SNORD26 /// SNORD27 /// SNORD28 /// SNORD29 /// SNORD31 / Fold change vs veh, SNHG1 /// SNORD22 /// SNORD25 /// SNORD26 /// SNORD27 /// SNORD28 /// SNORD29 /// SNORD31 / Fold change (Aza/veh), C12orf56 (ProbeSet 11735607_a_at) / Fold change (ACY-1035/veh), C12orf56 (ProbeSet 11735607_a_at) / Fold change (Aza/veh), FGFR1OP (ProbeSet 11751329_s_at) / Fold change (ACY-1035/veh), FGFR1OP (ProbeSet 11751329_s_at) / Fold change (Aza/veh), VPS36 (ProbeSet 11739960_a_at) / Fold change (ACY-1035/veh), VPS36 (ProbeSet 11739960_a_at) / RFU SYPL1 (11715823_x_at) / Fold change /veh SYPL1 (11715823_x_at) / RFU IGFBP7 (11715501_s_at) / Fold change /veh IGFBP7 (11715501_s_at) / RFU REEP3 (11722064_at) / Fold change /veh REEP3 (11722064_at) / RFU IGLL1 (11728026_x_at) / Fold change /veh IGLL1 (11728026_x_at): dose or concentration left out as unconfirmed
# Settings: ProbeSet 11722463_a_at; LIST B
smiles,measurement,value
Nc1ncn([C@@H]2O[C@H](CO)[C@@H](O)[C@H]2O)c(=O)n1 [azacitidine],"Fold change vs veh, TNKS2",0.86
